66 molecules from a melting point compilation (Tetko et al.; mined from patent text by program, amines drawn as free bases though some values may be those of a salt) can be followed below.

Each structure is given as a SMILES string.

Broadly, the melting point is the temperature of the solid-liquid transition.

For the molecule `CC(C)N1OCC(=Cc2cc(C(C)(C)C)c(O)c(C(C)(C)C)c2)C1=O`, the melting point was in the range of 178 to 180 °C.

`CCc1nn(C2CCCC2)c2cc(C(=O)Nc3c(Cl)ncnc3Cl)ccc12` displayed a melting point of 171 to 172 °C.

`Cn1ccnc1C(C)(C)O` registered a melting point of 128 to 129 °C.

In turn, `Cn1nc(-c2ccc(Cl)c(NS(C)(=O)=O)c2)c2ccccc2c1=O` showed a melting point of 234 to 236 °C.

For `CC1(Cl)C(=O)N(c2ccc(Cl)c(Cl)c2)N=C1C#N` (stereo unspecified), the melting point was in the range of 68 to 69 °C.

Molecule `COc1ccc(N2CCN(c3c(C)c4c(c(OC(C)C)c3C)OC(C)C4)CC2)cc1` (stereo unspecified) showed a melting point of 110 to 112 °C.

Turning to `Cc1cc(Nc2ccnc(Nc3ccc(C(=O)N(C)C4CCCN(CCCC(F)(F)F)C4)cc3)n2)ccc1F` (stereo unspecified), the melting point was in the range of 100 to 110 °C.

`O=C(O)c1ccc(C=Cc2cc(=O)c3cc(Br)ccc3o2)cc1`: the melting point lay in the range of 359 to 362 °C.

For `N#Cc1ccc(N2C(=O)N(CCF)C3(CCCC3)C2=O)cc1C(F)(F)F`, the melting point was found to be 115 °C.

`O=C(Cc1c(-c2ccccc2)c2cc(O)c(Cl)cc2oc1=O)Nc1ccc(Cl)cc1C(F)(F)F` yielded a melting point of 246 to 247 °C.

On to `CCc1cn(C2OC(CN)C(O)C2F)c(=O)[nH]c1=O` (stereo unspecified), for which the melting point was 194 to 214 °C.

Molecule `Nc1ccccc1CCc1ccccn1` returned a melting point of 59 to 61 °C.

`COc1c(C(=O)O)cc([N+](=O)[O-])c2ccccc12` displayed a melting point of 102 to 104 °C.

In the case of `CC(C)=CCc1c(O)ccc(C(=O)C=Cc2ccc(O)cc2O)c1O`, the melting point lay in the range of 150 to 151 °C.

For `OC(CNCc1ccccc1)c1ccc(OCc2ccccc2)c(F)c1` (stereo unspecified), the melting point is 113 to 114 °C.

Molecule `CC(=O)Nc1ccc(C(=O)NC(=O)N2CCC(Oc3ccc(Cl)cc3)CC2)cc1` gave a melting point of 79 °C.

The molecule `O=C(O)/C=C/c1ccc(OCc2cccnc2)cc1` returned a melting point of 228 to 230 °C.

Molecule `CON=C(C)CC(C)(C)Cn1c(C)nc2c(N)nc3ccccc3c21` had a melting point of 193 to 195 °C.

In turn, `O=C(O)C(Cl)=C(Cl)C(=O)N(Cc1ccco1)Cc1ccco1` displayed a melting point of 149 °C.

As to `CNC(=O)OC1CC2(CCN(CCCC(=O)c3ccc(F)cc3)C2)c2ccccc21` (stereo unspecified), the melting point was in the range of 167 to 169 °C.

In the case of `CC(C(=O)O)N(C(=O)OC(C)(C)C)c1ccc([N+](=O)[O-])cc1` (stereo unspecified), the melting point is 100 to 104 °C.

With `CC(C)(C)C(=O)Nc1ccc2oc3c(c2c1)CCCCCC3`, the melting point was in the range of 189 to 190 °C.

Regarding `Nc1ccc(Cl)cc1C(O)(C#CC1CC1)C(F)(F)F` (stereo unspecified), the melting point is 141 to 143 °C.

With `O=C(Cl)c1cc(F)c(Cl)c([N+](=O)[O-])c1Cl`, the melting point is 35 to 37 °C.

As to `CCOC(=O)C(Cc1ccccc1)N(CC)C(=O)OC(C)(C)C` (stereo unspecified), the melting point lay in the range of 58 to 61.5 °C.

`CCCc1ccccc1OCCCOc1cccc(OC(=CC(=O)OC)C(=O)OC)c1CC`: the melting point is 63.5 to 66 °C.

Turning to `CN(CC(O)C(O)C(O)C(O)CO)C(=O)c1c(I)c(N)c(I)c(N)c1I` (stereo unspecified), the melting point amounted to 110 °C.

Molecule `O=C(N[C@@H](CS)C(=O)O)C(Sc1nc2cc(Cl)ccc2s1)c1ccccc1` (stereo partly specified) registered a melting point of 155 to 158 °C.

As for `Cc1nc(N2CCN(CC(C)C)C2=O)sc1C(=O)NCc1cnn(C)c1`, the melting point was 155 to 158 °C.

`Cc1cccc2c1N(C)C(=O)C(NC(=O)Nc1cccc(-c3nnn[nH]3)c1)N=C2C1CCCCC1` (stereo unspecified) yielded a melting point of 199 to 201 °C.

`Cc1ccccc1NC(=O)c1c(C)nn(C)c1N`: the melting point fell in the range of 113 to 115 °C.

Consider `O=C1C(=Cc2cccnc2)CCc2ccc(Br)cc21`, for which the melting point was in the range of 124 to 125 °C.

`Brc1ccc2ccncc2c1`: the melting point was in the range of 78 to 79 °C.

Molecule `CC(C)(C)c1ccc(S(=O)(=O)Nc2cc(Cl)ncn2)cc1` gave a melting point of 225 to 226 °C.

In turn, `CCCCCCC(=O)c1ccc(OCC(=O)O)c(Cl)c1Cl` gave a melting point of 104 to 105 °C.

The molecule `COCC(C)N(C(=O)N(CCCl)N=O)C1(O)C(O)C(CO)OC(OCC(C)C)C1O` (stereo unspecified) came in with a melting point of 66 to 68 °C.

Molecule `CCN(CC)C(=O)c1ccn2nc(-c3ccccc3)c(-c3ccc(=O)n(C(C)C)n3)c2c1` yielded a melting point of 157 to 158 °C.

Molecule `COC(=O)ON(C(N)=O)C(C)c1cc2ccccc2s1` (stereo unspecified) came in with a melting point of 124 to 125 °C.

On to `CCCC1=C(C#N)C(c2cccc(Br)c2)c2c[nH]nc2N1` (stereo unspecified), for which the melting point was 202 to 205 °C.

For the molecule `O=C(CC(=O)C1CC1)c1cnc2ccccc2n1`, the melting point lay in the range of 113 to 115 °C.

Turning to `CCCN(CCC)C1Cc2cccc3c2n(c(=O)n3C)C1` (stereo unspecified), the melting point lay in the range of 83 to 85 °C.

`CSCC(=O)[C@H](Cc1ccccc1)NC(=O)[C@H](CC(C)C)NS(=O)(=O)c1ccccc1` yielded a melting point of 133 to 136 °C.

In the case of `COc1cc2c(cc1S(C)(=O)=O)nc(C)n2C(C)C`, the melting point lay in the range of 161 to 165 °C.

As for `COC(=O)c1cccc(Cn2nc(C(N)=O)c3ccccc32)c1`, the melting point lay in the range of 166 to 168 °C.

Turning to `C=CS(=O)(=O)C(C)(C)S(=O)(=O)C=C`, the melting point lay within 121 to 122 °C.

`COCCOc1ccc(/C=C(\C)C(=O)O)c(Oc2ncc(C(F)(F)F)cc2Cl)c1` returned a melting point of 122 °C.

`O=C(O)c1ccc(CO[N+](=O)[O-])cc1` returned a melting point of 159 to 161 °C.

With `O=C1c2ccccc2C(=O)N1CCCOc1cccc2c(O)nccc12`, the melting point is over 300 °C.

The molecule `CN(C)C1=NCc2ccc(Cl)cc2O1` showed a melting point of 118 to 120 °C.

On to `COC(=O)C(C(=O)OC)C(Cc1c([N+](=O)[O-])cccc1C(F)(F)F)c1ccc(OC)cc1` (stereo unspecified), for which the melting point was in the range of 117 to 119 °C.

With `O=C(O)CCCCCn1c(=O)c2ccccc2n(CCCCN2CCC(OC(c3ccccc3)c3ccccc3)CC2)c1=O`, the melting point fell in the range of 155 to 157 °C.

The molecule `COc1cc(C2CCCCC2)ccc1C(=O)CCC(=O)O` returned a melting point of 130 to 131 °C.

As to `NC(=O)N(O)CCNC(=O)CCc1ccccc1`, the melting point was 165 to 167 °C.

`Nc1ccc(-c2nc3ccccc3s2)cc1Cl` showed a melting point of 160 to 162 °C.

Turning to `O=C(O)CCc1cc2cc(Cl)ccc2n1S(=O)(=O)c1ccc(-c2ccccc2)cc1`, the melting point was in the range of 160 to 162 °C.

`CS(=O)(=O)Nc1ccccc1C(=O)C1CCCCC1` gave a melting point of 119 to 120 °C.

The molecule `FC(F)(F)CNC(=S)NCc1ccc(OC(F)(F)F)cc1` registered a melting point of 94.7 to 96.4 °C.

Regarding `O=C(O)Cc1ccc2c(c1)CCc1cccnc1O2`, the melting point was in the range of 203 to 204 °C.

Consider `CCCCS(=O)c1ccc(C(=O)OC)nc1` (stereo unspecified), for which the melting point was in the range of 150 to 154 °C.

`CCC(CC)Oc1cc(C)nc2c1NC(=O)CN2c1c(C)cc(C)cc1C` showed a melting point of 179 to 181 °C.

`CN1CCC(=O)N(c2ccccc2)c2cc(Cl)ccc21`: the melting point fell in the range of 143 to 144 °C.

In the case of `CC(=O)N1CC(CCN2CC=C(c3c[nH]c4cc(Cl)ccc34)CC2)c2cc(F)ccc21` (stereo unspecified), the melting point was in the range of 183 to 185 °C.

The molecule `CN1CCN(C(=O)OC2c3ccccc3C(=O)N2c2ccc3c(Cl)ccnc3n2)CC1` (stereo unspecified) returned a melting point of 240 °C.

For `COCCNC(=O)c1cccc(-c2ccc3c(c2)N(c2ccc(Cl)cc2Cl)CC3)c1`, the melting point lay within 119 to 120 °C.

`CN(C)c1noc(-c2ncn3c2COc2cc(F)ccc2-3)n1`: the melting point was 239 to 240 °C.

For the molecule `COc1ccc(CCCn2ccnc2S)cc1`, the melting point was in the range of 108 to 109 °C.
